Experimental data: patent publication US8415327B2, “Methods of and compositions for reducing cell death” (priority 2009, dated 2013)
“Also recorded” adds a separate entry of the source.

Key:
[1] = test system: retinal endothelial cells; assay: Radiation-induced death of retinal endothelial cells, calcein-AM/propidium iodide viability assay; type: cell-based, murine; conditions: for rescue: 1 μM at the time of irradiation, 72 hours; for radio-protection: administered before or at the time of irradiation
Procedure: Cell Culture: Murine endothelial cells were isolated from Immortomice, which express a temperature-sensitive Simian virus 40 large T antigen, using sheep anti-rat Dynabeads coated with the rat anti-mouse PECAM-1 monoclonal antibody MEC13.3. […] Irradiation and Viability Assays: The cells were plated onto 1% gelatin coated 96-well plates at a density of 2,000 cells per well. For irradiation, control and treatment groups were removed from the incubator. Treatment groups received single doses of radiation between 1 and 30 Gray using an irradiator containing ^137Cesium (JL Shepherd & Associates) using a rotating platform to ensure uniform delivery. Control groups were left at room temperature during irradiation of the treatment groups. PB1 or PB2 was administered 18 hours before, immediately before, or 18 hours after irradiation. Media was aspirated 48 or 72 hours after irradiation using a 30 gauge needle and the cells were incubated in staining containing calcein-AM and propidium iodide in PBS for 30 minutes at room temperature in the dark. Digital photomicrographs of the wells were taken at a total magnification of 200× on a Zeiss Axiovert inverted microscope under epifluorescence. Calcein-positive (viable) and propidium iodide-positive (dead) cells were counted using NIH ImageJ software. Statistical significance was determined using the Student's t-tests.

RGC-5 cells [2] = assay: Rescue of RGC-5 cells from METC-active drugs (menadione, rotenone, antimycin A), calcein/propidium iodide viability assay; conditions: for protection/rescue from death induced by menadione, rotenone and antimycin A: RGC-5 cells, 24 hours co-incubation; for rescue of RGC-5 cells at higher concentrations: most likely due to toxicity; for viability (live cells compared to untreated controls): 24 hours
Procedure: Cell Culture: RGC-5 cells were cultured in Dulbecco's modified Eagle's medium (DMEM) (Mediatech, Inc., Manassas, Va.). containing 1 g/L glucose, supplemented with 10% fetal bovine serum, 100 U/mL penicillin, and 100 μg/mL streptomycin (Mediatech, Inc.). Cells were passaged every 48 to 72 hours when cells were approximately 60 to 75% confluent, replated at a 1:20 dilution in a 75 cm^2 flask in 20 ml of cell culture media and incubated at 37° C. in humidified 5% CO2. Experiments were performed in duplicate or triplicate.
Cell Treatment and Assessment of Viability: Cells were plated in 96-well plates at a density of 60 cells/mm^2 in 50 μL of media. Approximately 24 hours after plating, 50 μL of media containing either menadione, rotenone, or antimycin A, either with or without PB1 and PB2, was added to the cells to generate the final concentrations of 10 nM, 1 μM, or 100 μM. Control wells received media containing vehicle alone. Following 24 hours of treatment, media was aspirated from wells using a 25-gauge needle and cells stained with calcein-AM (10 μg/mL) and propidium iodide (1 μg/mL) (both Invitrogen, Carlsbad, Calif.) in PBS for 30 minutes. The staining solution was aspirated using a 25-gauge needle and replaced with PBS. Three randomly chosen fields per well were photographed on an Axiovert 135 microscope under epifluorescence with a Nikon D70s digital SLR camera (Nikon, Melville, N.Y.) at a resolution of 3008×2000 pixels and an exposure time of 1.6 seconds. Live (calcein-positive) and dead (propidium iodide-positive) cells were assessed using Image) software. Pictures were batch analyzed using a macro containing the following actions: subtract background, threshold, erode, erode, watershed, and analyze particles between the sizes of 1000 pixels and infinity. […] Each experiment was analyzed with respect to its own set of controls to account for variation in passage number of the RGC-5 cells and small differences between batches of cryopreserved RGC-5 cells.
Statistics: Viability was assessed as number of live cells/mm^2, and compared to the untreated controls of each experiment. Means were compared using Student's unpaired t-test.
RGC-5 cells plated in 96-well plates were treated for 24 hours with the redox cycling agent menadione, the complex I inhibitor rotenone, or the complex III inhibitor antimycin A, at final concentrations ranging from 100 nM to 31.6 μM (menadione) or 1 μM to 316 μM (rotenone or antimycin A). […] RGC-5 cells were co-incubated with these mitochondrial electron transporter chain (METC)-drugs and the borane-phosphines PB1 or PB2 for 24 hours, followed by assessment of cell viability by calcein/propidium iodide assay. TCEP (100 μM) served as a positive control.

[3] = test system: retinal endothelial cells; assay: Protection of retinal endothelial cells from H2O2 oxidative damage; type: cell-based, murine; conditions: for most effective concentration against oxidative insults: tested at 1-1000 μM
Procedure: Cell Culture: Murine endothelial cells were cultured as described in Experiment 3. Endothelial cells were treated directly with high levels of H2O2 in the absence or presence of PB1 and PB2 at a concentrations of 1-1000 μM.

[4] = Sulfhydryl reducing activity (DTNB); type: biochemical
Procedure: Sulfhydryl reducing activity: Sulfhydryl reducing activity was measured with 5-5′-dithio-bis(2-nitrobenzoic acid) (DTNB), which undergoes a colorimetric change when its disulfide linkage is reduced. Reaction of various concentrations of dithiothreitol, tris(carboxyethyl)phosphine, PB1, or PB2 with 30 mM DTNB in methanol was carried out in buffer at pH 5, 7, and 9. The sulfhydryl reduction potentials of PB1 and PB2 were assessed both before and after borane deprotection with DABCO.

[5] = Superoxide scavenging (hydroethidine fluorescence, xanthine/xanthine oxidase); type: biochemical
Procedure: Superoxide scavenging: The ability of PB1 and PB2 to scavenge superoxide was quantified essentially as described ([…] et al., Invest. Opthalmol. Vis. Sci. 47:3878 (2006)). Essentially, fluorescence of hydroethidine was measured after exposure to superoxide generated by xanthine/xanthine oxidase, in the presence or absence of PB1, PB2, or polyethylene glycol-conjugated superoxide dismutase used as positive control.

RGC-5 cells [6] = assay: Menadione-induced cell death in RGC-5 cells (calcein-AM viable cell count); type: cell-based; conditions: for neuroprotection against menadione-induced cell death / effectiveness as neuroprotectant compared with PB3: RGC-5 cells; for effectiveness as neuroprotectant compared with PB3: menadione; for % of the cells protected from menadione-induced cell death: 17.8 μM menadione, 24 hours
Procedure: Cell Culture: Cells of RGC-5 (ATCC Deposit Accession No. PTA-6600), a neuronal cell line, were suspended in growth medium and plated in 96-well plates at a density of 2,000 cells per well. After 24 hours in culture, cells were treated with 17.8 μM menadione (Sigma-Aldrich, St. Louis, Mo.). Menadione creates oxidative stress resulting in cell death. PB3, PB4, or PB6 was added to the wells directly before menadione treatment. After 24 hours of menadione treatment, the cells were stained with calcein-AM and photographed.

Row | Structure (SMILES) | rescue ([1]; 3 Gy) [%] | radio-protection [1] | protection/rescue from death induced by menadione, rotenone and antimycin A (RGC-5 cells [2]) | rescue of RGC-5 cells at higher concentrations (RGC-5 cells [2]) | most effective concentration against oxidative insults ([3]; H2O2) [µM] | disulfide reduction as mechanism of protection [4] | superoxide scavenging as mechanism of protection [5] | neuroprotection against menadione-induced cell death (RGC-5 cells [6]) | effectiveness as neuroprotectant compared with PB3 (RGC-5 cells [6]) | % of the cells protected from menadione-induced cell death (RGC-5 cells [6]; compound 1 μM) [%] | other results
1 | [BH3-][P+](CCC(=O)OC)(c1ccccc1)c1ccccc1 [PB2, (3-propionic acid methyl ester)diphenylphosphine borane complex] | 46 | effective radio-protectants | significant rescue; also recorded: significant protection | little or no rescue | 1 | involves disulfide reduction | not superoxide scavenging | – | – | – | toxicity to RGC-5 cells (RGC-5 cells [2]): toxic; viable cell counts, % of control ([3]; 1 µM): 9.0±1.6%
2 | [BH3-][P+](CCC(=O)OCCCCCC)(c1ccccc1)c1ccccc1 [PB4, (3-propionic acid hexyl ester)diphenylphosphine borane complex] | – | – | – | – | – | – | – | neuroprotective | less effective neuroprotectants than PB3 | 19.0±5.5 | –
3 | [BH3-][P+](CCC(=O)OC)(CCC(=O)OC)c1ccccc1 [PB1, bis(3-propionic acid methyl ester)phenylphosphine borane complex] | 35 | effective radio-protectants | significant rescue; also recorded: significant protection | little or no rescue | 1 | involves disulfide reduction | not superoxide scavenging | – | – | – | protection against radiation exposures ([1]; 100 nM, 18 hours after irradiation, all radiation exposures tested): significant protection; viable cell counts, % of non-irradiated control ([1]; 1 μM administered at the time of irradiation, 3 Gy, 72 hours after irradiation, 29±6% without compound): 54±6%; radiomitigation: change in viable cell counts ([1]; administered 18 hours after exposure to ionizing radiation up to 30 Gy): significant increases in viable cell counts; protection against radiation exposure ([1]; all PB1 treatment levels, 18 hours after irradiation, 30 Gy, p<0.05): significant protection; viability (live cells compared to untreated controls) (RGC-5 cells [2]; antimycin A, compound 100 μM, vs. 34±2% without compound): 74±4%; viability (live cells compared to untreated controls) (RGC-5 cells [2]; menadione, compound 100 μM, vs. 34±4% without compound): 83±5%; viability (live cells compared to untreated controls) (RGC-5 cells [2]; rotenone, PB1 concentration not restated (100 μM in preceding sentence), vs. 25±3% without compound): 36±3%; viable cell counts, % of control ([3]; H2O2, compound 1 μM, 24 hours, 4.2±1.1% without compound): 10.8±2.3%
4 | [BH3-][P+](CC(=O)NCC)(c1ccccc1)c1ccccc1 [PB6, (2-Ethyl acetamide)diphenylphosphine borane complex] | – | – | – | – | – | – | – | neuroprotective | less effective neuroprotectants than PB3 | – | % of the cells protected from menadione-induced cell death (RGC-5 cells [6]; compound 10 pM): 25.6±8.4%
5 | B.CCCCCCOC(=O)CCP(CCC(=O)OCCCCCC)c1ccccc1 [PB3, bis(3-propionic acid hexyl ester)phenylphosphine borane complex] | – | – | – | – | – | – | – | neuroprotective | – | 46.4±16.8 | % of the cells protected from menadione-induced cell death (RGC-5 cells [6]; compound 10 μM): 38.3±12.2%; % of the cells protected from menadione-induced cell death (RGC-5 cells [6]; compound 100 μM): 30.9±4.3%
